# Experimental data from patent publication US20250052763A1, “COMPOSITIONS AND METHODS FOR IDENTIFYING LIGANDS OF ODORANT RECEPTORS” (Duke University, priority 2021, published 2025).
# Test system: odorant receptors (ORs) expressed by OSNs
# Assay: pS6-IP-Seq: identification of ORs activated by odorants in vivo
# Set-up: species or system mouse
# Settings: for ORs identified as responsive by pS6-IP-Seq: responsive = log2FC>0 and FDR<0.05
# Procedure: Phosphorylated S6 Ribosomal Capture (pS6-IP)
# Mice used for pS6-IP were ˜3 weeks old, mixed sex, and littermates. Mice were killed by CO2 asphyxiation and cervical dislocation. Olfactory tissue was rapidly dissected in Buffer B (2.5 mM HEPES KOH pH 7.4, 0.63% glucose, 100 g/mL cycloheximide, 5 mM sodium fluoride, 1 mM sodium orthovanadate, 1 mM sodium pyrophosphate, 1 mM β-glycerophosphate, in Hank's balanced salt solution). Tissue pieces were then minced in 1.35 mL Buffer C (150 mM KCl, 5 mM MgCl2, 10 mM HEPES KOH pH 7.4, […], 2 mM DTT, 100 U/mL RNAsin, 100 µg/mL cycloheximide, protease inhibitor cocktail, 5 mM sodium fluoride, 1 mM sodium orthovanadate, 1 mM sodium pyrophosphate, 1 mM β-glycerophosphate) and subsequently transferred to homogenization tubes for steady homogenization at 250 rpm three times and at 750 rpm nine times at 4° C. […] This solution was mixed and then clarified at a max speed (17,000×g) for 10 min at 4° C. The resulting high-speed supernatant was transferred to a new tube where 20 μL was saved and transferred to a tube containing 350 L buffer RLT. To the remainder of the sample, 1.3 μL of 100 μg/mL cycloheximide, 27 μL of phosphatase inhibitor cocktail (250 mM sodium fluoride, 50 mM sodium orthovanadate, 50 mM sodium pyrophosphate, 50 mM β-glycerophosphate) and 6 μL of anti-pS6 antibody (Cell Signaling D68F8) were added. The sample was gently rotated for 90 min at 4° C. To prepare beads, 100 L of beads (Invitrogen 10002D) was washed three times with 900 L of buffer A (150 mM KCl, 5 mM MgCl2, 10 mM HEPES KOH pH 7.4, 10% NP40, 10% BSA), and once with 500 L of buffer C. Sample homogenate was added to the beads and incubated with gentle rotation for 60 min at 4° C. Following incubation, beads were washed with four times with 700 μL of buffer D (350 mM KCl, 5 mM MgCl2, 10 mM HEPES KOH pH 7.4, 10% NP40, 2 mM DTT, 100 U/mL RNAsin, 100 μg/mL cycloheximide, 5 mM sodium fluoride, 1 mM sodium orthovanadate, 1 mM sodium pyrophosphate, 1 mM β-glycerophosphate). During the final wash, beads were moved to room temperature, wash buffer was removed, and […] of buffer RLT was added. Beads were incubated in buffer RLT for 5 min at room temperature. Buffer RLT containing immunoprecipitated RNA was then eluted and stored at −80° C. until clean up using a kit (Qiagen 74004). cDNA was generated using 11 rounds of amplification with 10 ng RNA input. […] Libraries were sequenced on either HiSeq 2000/2500 (50 base pair single read mode) or NextSeq 500 (75 base pair single read mode) with 6-12 pooled indexed libraries per lane.
# Reads mapping to Olfr290 were inferred from ENSMUSG00000070459, with the rationale that this gene model included ENSMUSG00000116179 plus untranslated regions. […] Intact Olfr genes with identifiable sequences were filtered, and p-values were then re-corrected by FDR. […] Raw and processed RNA-Seq datasets generated as part of this study are available from NCBI GEO at accession GSE185415.
# First, ORs activated by a set of 61 odorants at various concentrations were determined by leveraging pS6-IP-Seq. […] ORs were considered odor-responsive if enrichment values (log2FC) were positive with a false discovery rate (FDR)<0.05.
Compound,ORs identified as responsive by pS6-IP-Seq (odorant at 1%),further results
"C=C(C)C1CCC(C)C(O)C1 (single isomer, unassigned; (+)) [(+)-dihydrocarveol]",no ORs were identified as responsive,–
"C=C(C)C1CCC(C)C(O)C1 (single isomer, unassigned; (-)) [(−)-dihydrocarveol]",no ORs were identified as responsive,–
CC(=O)c1ccccc1O [2′-hydroxyacetophenone],–,"number of ORs identified as responsive, relative to the mean (odorant at 1%, excluded from all analysis): more than five standard deviations away from the mean"
C=C1CC/C=C(\C)CC[C@@H]2[C@@H]1CC2(C)C [P-Caryophyllene],no ORs were identified as responsive,–
C[C@]12CCC(=O)C[C@@H]1CC[C@@H]1[C@@H]2CC[C@]2(C)C=CC[C@@H]12 [androstenone],–,ORs identified as responsive by pS6-IP-Seq (odorant at 3 mM): no ORs were identified as responsive
CSC [dimethyl sulfide],no ORs were identified as responsive,–
CC(C)=CCC/C(C)=C/CO [geraniol],no ORs were identified as responsive,–
c1ccc2[nH]ccc2c1 [indole],no ORs were identified as responsive,–
CCC(=O)O [propionic acid],no ORs were identified as responsive,–
